The mark [1] stands for this setting: disulfide bond, 15-membered ring, I2 (10 eq), CH2Cl2/MeOH 9:1, 0.43 mM.

Where “and” joins values, the source holds several entries; their conditions need not be identical. Equal values may be shown once. Read-outs that look alike come from different tables or passages of the source.

Where the note is “from (R)-4-{(S)-1-[1-(2-Carboxy-1-hydroxy-ethyl)-cyclopropylcarbamoyl]-2-tritylsulfanyl-ethylcarbamoyl}-4-((E)-(S)-3-hydroxy-7-tritylsulfanyl-hept-4-enoylamino)-butyric acid tert-butyl ester, ester bond, 15-membered ring, MNBA/DMAP, CH2Cl2, 1.07 mM”, `CC(C)(C)OC(=O)CC[C@H]1NC(=O)C[C@@H](/C=C/CCSC(c2ccccc2)(c2ccccc2)c2ccccc2)OC(=O)CC(O)C2(CC2)NC(=O)[C@@H](CSC(c2ccccc2)(c2ccccc2)c2ccccc2)NC1=O` (stereo partly drawn) returned a ring closure, isolated yield of 56%.
For the setting “from (E)-(S)-3-hydroxy-7-tritylsulfanyl-hept-4-enoyl-dGlu(OtBu)-dCys(Trt)-Aib-Gly-OH, ester bond, 16-membered ring, MNBA/DMAP, CH2Cl2/THF, 0.94 mM, 2 steps”, `CC(C)(C)OC(=O)CC[C@H]1NC(=O)C[C@@H](/C=C/CCSC(c2ccccc2)(c2ccccc2)c2ccccc2)OC(=O)CNC(=O)C(C)(C)NC(=O)[C@@H](CSC(c2ccccc2)(c2ccccc2)c2ccccc2)NC1=O` registered a ring closure, isolated yield of 63%.
In turn, `CC(C)(C)OC(=O)CC[C@H]1NC(=O)C[C@@H](/C=C/CCSC(c2ccccc2)(c2ccccc2)c2ccccc2)OC(=O)CNC(=O)C2(CC2)NC(=O)[C@@H](CSC(c2ccccc2)(c2ccccc2)c2ccccc2)NC1=O` registered a ring closure, isolated yield (from (E)-(S)-3-hydroxy-7-tritylsulfanyl-hept-4-enoyl-dGlu(OtBu)-dCys(Trt)-Acc-Gly-OH, ester bond, 16-membered ring, MNBA/DMAP, CH2Cl2/THF, 0.85 mM, 25.0 °C, 2 steps) of 29%.
For `CC(C)[C@@H]1NC(=O)[C@@H](CSC(c2ccccc2)(c2ccccc2)c2ccccc2)NC(=O)C2(CC2)NC(=O)C[C@@H](/C=C/CCSC(c2ccccc2)(c2ccccc2)c2ccccc2)OC(=O)CNC1=O`, for the setting “from (3S,4E)-3-hydroxy-7-(tritylthio)hept-4-enoyl-Ac3c-dCys(Trt)-Val-Gly-OH?, ester bond, 16-membered ring, MNBA/DMAP, CH2Cl2/THF, 0.77 mM, 2 steps”, the ring closure, isolated yield was determined as 50%.
For the compound `O=C1C[C@@H](/C=C/CCSC(c2ccccc2)(c2ccccc2)c2ccccc2)OC(=O)CNC(=O)C2(CC2)NC(=O)[C@@H](CSC(c2ccccc2)(c2ccccc2)c2ccccc2)NC(=O)CN1`, the ring closure, isolated yield (from (3S,4E)-3-hydroxy-7-(tritylthio)hept-4-enoyl-Gly-dCys(Trt)-Ac3c-Gly-OH, ester bond, 16-membered ring, MNBA/DMAP, CH2Cl2, 0.85 mM) was 45%.
Compound `O=C1C[C@@H](/C=C/CCSC(c2ccccc2)(c2ccccc2)c2ccccc2)OC(=O)CNC(=O)C2(CC2)NC(=O)[C@@H](CSC(c2ccccc2)(c2ccccc2)c2ccccc2)NC(=O)[C@@H](Cc2cccc(Cl)c2)N1` returned a ring closure, isolated yield (from (3S,4E)-3-hydroxy-7-(tritylthio)hept-4-enoyl-dPhe(3-Cl)-dCys(Trt)-Acc(1-aminocyclopropanecarbonyl)-Gly-OH, ester bond, 16-membered ring, MNBA/DMAP, CH2Cl2, 1.06 mM) of 40%.
The compound `O=C1C[C@@H](/C=C/CCSC(c2ccccc2)(c2ccccc2)c2ccccc2)OC(=O)CNC(=O)C2(CC2)NC(=O)[C@@H](CSC(c2ccccc2)(c2ccccc2)c2ccccc2)NC(=O)[C@@H](Cc2ccccc2)N1` displayed a ring closure, isolated yield (from (3S,4E)-3-hydroxy-7-(tritylthio)hept-4-enoyl-dPhe-dCys(Trt)-Acc(1-aminocyclopropanecarbonyl)-Gly-OH, ester bond, 16-membered ring, MNBA/DMAP, CH2Cl2/THF, 0.83 mM, 2 steps) of 58%.
With `O=C1C[C@@H](/C=C/CCSC(c2ccccc2)(c2ccccc2)c2ccccc2)OC(=O)CNC(=O)C2(CC2)NC(=O)[C@@H](CSC(c2ccccc2)(c2ccccc2)c2ccccc2)NC(=O)[C@@H](Cc2cccnc2)N1`, the ring closure, isolated yield (from (3S,4E)-3-hydroxy-7-(tritylthio)hept-4-enoyl-d3Pal-dCys(Trt)-Acc(1-aminocyclopropanecarbonyl)-Gly-OH?, ester bond, 16-membered ring, MNBA/DMAP, CH2Cl2/THF, 0.67 mM, 2 steps) worked out at 96%.
Take “3-((E)-(1S,9S,20R)-5-Hydroxy-6,6-cyclopropyl-3,8,18,21-tetraoxo-2-oxa-11,12-dithia-7,19,22-triaza-bicyclo[7.7.6]docos-15-en-20-yl)-propionic acid tert-butyl ester”: the ring closure, isolated yield (disulfide bond, 15-membered ring, I2, CH2Cl2/MeOH 9:1, 0.39 mM) was 32% and 26%.
Consider “3-((E)-(1S,10S,21R)-7,7-Cyclopropyl-3,6,9,19,22-pentaoxo-2-oxa-12,13-dithia-5,8,20,23-tetraaza-bicyclo[8.7.6]tricos-16-en-21-yl)-propionic acid tert-butyl ester”, for which the ring closure, isolated yield (disulfide bond, 15-membered ring, I2, CH2Cl2/MeOH 9:1, 0.4 mM, 25.0 °C) is 65%.
Where the note is “disulfide bond, 15-membered ring, I2, CH2Cl2/MeOH 9:1, 0.35 mM, 25.0 °C”, “3-((E)-(1S,10S,21R)-7,7-Dimethyl-3,6,9,19,22-pentaoxo-2-oxa-12,13-dithia-5,8,20,23-tetraaza-bicyclo[8.7.6]tricos-16-en-21-yl)-propionic acid tert-butyl ester” displayed a ring closure, isolated yield of 81%.
For “3-((E)-(1S,10S,21R)-7-cyclobutyl-3,6,9,19,22-pentaoxo-2-oxa-12,13-dithia-5,8,20,23-tetraaza-bicyclo[8.7.6]tricos-16-en-21-yl)-propionic acid tert-butyl ester”, the ring closure, isolated yield (disulfide bond, 15-membered ring, I2, CH2Cl2/MeOH 9:1, 0.46 mM) came to 93%.
For `CC(C)(C)OC(=O)CC[C@H]1NC(=O)CC(/C=C/CCSC(c2ccccc2)(c2ccccc2)c2ccccc2)OC(=O)CNC(=O)C2(CCC2)NC(=O)C(CSC(c2ccccc2)(c2ccccc2)c2ccccc2)NC1=O` (stereo in doubt), under “from (3S,4E)-3-hydroxy-7-(tritylthio)hept-4-enoyl-dGlu(tBu)-dCys(Trt)-Ac4c-Gly-OH, ester bond, 16-membered ring, MNBA/DMAP, CH2Cl2/THF, 1.13 mM, 2 steps”, the ring closure, isolated yield worked out at 51%.
Take `CC(C)[C@H]1NC(=O)[C@@H](CSC(c2ccccc2)(c2ccccc2)c2ccccc2)NC(=O)C(C)(C)NC(=O)CC(/C=C/CCSC(c2ccccc2)(c2ccccc2)c2ccccc2)OC(=O)CNC1=O` (stereo in doubt): the ring closure, isolated yield (from (3S,4E)-3-hydroxy-7-(tritylthio)hept-4-enoyl-Aib-dCys(Trt)-dVal-Gly-OH, ester bond, 16-membered ring, MNBA/DMAP, CH2Cl2/THF, 1.0 mM, 2 steps) came out at 47%.
`O=C1CC(/C=C/CCSC(c2ccccc2)(c2ccccc2)c2ccccc2)OC(=O)CNC(=O)C2(CC2)NC(=O)[C@@H](CSC(c2ccccc2)(c2ccccc2)c2ccccc2)NC(=O)[C@@H](Cc2ccncc2)N1` (stereo in doubt) gave a ring closure, isolated yield (from (3S,4E)-3-hydroxy-7-(tritylthio)hept-4-enoyl-d4Pal-dCys(Trt)-Acc(1-aminocyclopropanecarbonyl)-Gly-OH, ester bond, 16-membered ring, MNBA/DMAP, CH2Cl2/THF, 0.97 mM, 2 steps) of 54%.
Regarding “(E)-(1S,10S)-7,7-Cyclopropyl-2-oxa-12,13-dithia-5,8,20,23-tetraaza-bicyclo[8.7.6]tricos-16-ene-3,6,9,19,22-pentaone”, the ring closure, isolated yield (disulfide bond, 15-membered ring, I2, CH2Cl2/MeOH 9:1, 0.2 mM) is 53%.
Consider “(E)-(1S,10S)-7-Isopropyl-21,21-cyclopropyl-2-oxa-12,13-dithia-5,8,20,23-tetraaza-bicyclo[8.7.6]tricos-16-ene-3,6,9,19,22-pentaone”, for which, where the note is “disulfide bond, 15-membered ring, I2, CH2Cl2/MeOH 9:1”, the ring closure, isolated yield is 76%.
In the case of “(E)-(1S,10S,21R)-7,7-Cyclopropyl-21-pyridin-3-ylmethyl-2-oxa-12,13-dithia-5,8,20,23-tetraaza-bicyclo[8.7.6]tricos-16-ene-3,6,9,19,22-pentaone”, the ring closure, isolated yield (disulfide bond, 15-membered ring, I2 (10 eq), CH2Cl2/MeOH 9:1, 0.35 mM) was found to be 24%.
Under setting [1], “(E)-(1S,10S,21R)-7-cyclopropyl-21-pyridin-4-ylmethyl-2-oxa-12,13-dithia-5,8,20,23-tetraaza-bicyclo[8.7.6]tricos-16-ene-3,6,9,19,22-pentaone” gave a ring closure, isolated yield of 2%.
With “(E)-(1S,10S,21R)-21-(3-Chloro-benzyl)-7,7-cyclopropyl-2-oxa-12,13-dithia-5,8,20,23-tetraaza-bicyclo[8.7.6]tricos-16-ene-3,6,9,19,22-pentaone”, the ring closure, isolated yield (disulfide bond, 15-membered ring, I2, CH2Cl2/MeOH 9:1, 0.19 mM) came out at 32%.
Compound “(E)-(1S,10S,21R)-21-Benzyl-7,7-cyclopropyl-2-oxa-12,13-dithia-5,8,20,23-tetraaza-bicyclo[8.7.6]tricos-16-ene-3,6,9,19,22-pentaone” came in with a ring closure, isolated yield under setting [1] of 81%.

(Values after patent US8614193.)
